Measurements as given in patent US11691949B2, “Quinoline sulfonamide compounds and their use as antibacterial agents” (OTAGO INNOVATION LIMITED, priority 2017, dated 2023).
Converted amounts (≈) assume the structure as drawn. Where two headings read alike, the source gives them in different places.

Tests used:
Format in all cases: cell-based
S. uberis ATCC 19436 = experiment: MIC by broth microdilution, S. uberis; settings: Streptococcus uberis, read-out: S. uberis ATCC 19436 MIC
Summary of the method: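 This broth microdilution assay used S. uberis ATCC 19436 in Todd Hewitt Broth, with zinc sulphate heptahydrate added where required to a final 50 μM. Inhibitor concentration ranges came from two-fold serial dilutions in 96-well flat bottom plates at 200 μl. Approximately 5×10^5 cfu/mL cells were incubated for 24 h at 37° C. and 200 rpm. Wells were then read at OD600 on a Varioskan Flash reader.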

S. aureus ATCC 6538 = experiment: MIC by broth microdilution, S. aureus; settings: Staphylococcus aureus, read-out: S. aureus ATCC 6538 MIC
Summary of the method: (§1)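 Media: TSB or CAMHB for S. aureus, LB or CAMHB for E. coli, with zinc sulphate to 50 μM final where required. Cells at ~5×10^5 cfu/mL met two-fold compound series; growth was scored by OD600 after 24 h shaking at 37° C.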

E. coli ATCC 10596 = experiment: MIC by broth microdilution, E. coli; settings: Escherichia coli, read-out: E. coli ATCC 10536 MIC
Summary of the method: as §1

[1] = ATCC 10536 / ATCC 10596, No Zinc
[2] = ATCC 10536 / ATCC 10596, Zinc (50 μM)

Compound | MIC (S. uberis ATCC 19436; ATCC19436, No Zinc) [µg/mL] | MIC (S. uberis ATCC 19436; ATCC19436, Zinc (50 μM)) [µg/mL] | MIC (S. aureus ATCC 6538; ATCC6538, No Zinc) [µg/mL] | MIC (S. aureus ATCC 6538; ATCC6538, Zinc (50 μM)) [µg/mL] | MIC (E. coli ATCC 10596; [1]) [µg/mL] | MIC (E. coli ATCC 10596; [2]) [µg/mL]
CN(C)Cc1ccc2cccc(NS(=O)(=O)c3ccc(C(F)(F)F)cc3)c2n1 [ZDR022, N-(2-((Dimethylamino)methyl)quinolin-8-yl)-4-(trifluoromethyl)-benzenesulfonamide] | 64 (≈ 156 µM) | 0.125 (≈ 0.305 µM) | 16 (≈ 39.1 µM) | 8 (≈ 19.5 µM) | > 256 | > 256
O=S(=O)(Nc1cccc2ccc(CNCc3cccs3)nc12)c1ccc(C(F)(F)F)cc1 [ZDR107, N-(2-(((Thiophen-2-ylmethyl)amino)methyl)quinolin-8-yl)-4-(trifluoromethyl)benzenesulfonamide] | 64 (≈ 134 µM) | 0.125 (≈ 0.262 µM) | > 256 | 64 (≈ 134 µM) | > 256 | > 256
O=Cc1ccc2cccc(NS(=O)(=O)c3ccc(C(F)(F)F)cc3)c2n1 [ZDR019, N-(2-Formylquinolin-8-yl)-4-(trifluoromethyl)benzenesulfonamide] | 16 (≈ 42.1 µM) | 1 (≈ 2.63 µM) | 8 (≈ 21 µM) | 8 (≈ 21 µM) | 128 (≈ 337 µM) | 128 (≈ 337 µM)
Cc1nc(C)c(S(=O)(=O)Nc2cccc3ccc(CN(C)C)nc23)s1 [ZDR203, N-(2-((Dimethylamino)methyl)quinolin-8-yl)-2,4-dimethylthiazole-5-sulfonamide] | 256 (≈ 680 µM) | 0.5 (≈ 1.33 µM) | > 256 | 64 (≈ 170 µM) | > 256 | > 256
O=S(=O)(Nc1cccc2ccc(CN3CCCC3)nc12)c1ccc(C(F)(F)F)cc1 [ZDR407, N-(2-(Pyrrolidin-1-ylmethyl)quinolin-8-yl)-4-(trifluoromethyl)benzenesulfonamide] | 128 (≈ 294 µM) | 0.125 (≈ 0.287 µM) | 64 (≈ 147 µM) | 256 (≈ 588 µM) | 256 (≈ 588 µM) | 256 (≈ 588 µM)
CN(C)Cc1ccc2cccc(NS(=O)(=O)N3CCCCC3)c2n1 [ZDR193, N-(2-((Dimethylamino)methyl)quinolin-8-yl)piperidine-1-sulfonamide] | 128 (≈ 367 µM) | 0.25 (≈ 0.717 µM) | > 256 | > 256 | > 256 | > 256
O=S(=O)(NCCNCc1ccc2cccc(NS(=O)(=O)c3ccc(C(F)(F)F)cc3)c2n1)c1ccccc1 [ZDR181, N-(2-(((2-(Phenylsulfonamido)ethyl)amino)methyl)quinolin-8-yl)-4-(trifluoromethyl)benzenesulfonamide] | > 256 | 0.5 (≈ 0.886 µM) | 64 (≈ 113 µM) | > 256 | 64 (≈ 113 µM) | > 256
N/C(=N\[N+](=O)[O-])NCCNCc1ccc2cccc(NS(=O)(=O)c3ccc(C(F)(F)F)cc3)c2n1 [ZDR145, (E)-N-(2-(((2-(2-Nitroguanidino)ethyl)amino)methyl)quinolin-8-yl)-4-(trifluoromethyl)benzenesulfonamide] | > 256 | > 256 | 64 (≈ 125 µM) | 128 (≈ 250 µM) | 128 (≈ 250 µM) | 256 (≈ 501 µM)
C=CCNCc1ccc2cccc(NS(=O)(=O)c3ccc(C(F)(F)F)cc3)c2n1 [ZDR097, N-(2-((Allylamino)methyl)quinolin-8-yl)-4-(trifluoromethyl)benzenesulfonamide] | > 256 | 0.0625 (≈ 0.148 µM) | > 256 | > 256 | > 256 | 256 (≈ 607 µM)
CN(C)Cc1ccc2cccc(NS(=O)(=O)c3cnn(C)c3)c2n1 [ZDR194, N-(2-((Dimethylamino)methyl)quinolin-8-yl)-1-methyl-1H-pyrazole-4-sulfonamide] | > 256 | 4 (≈ 11.6 µM) | > 256 | > 256 | > 256 | > 256
COc1ccc(S(=O)(=O)Nc2cccc3ccc(CN(C)C)nc23)cc1 [ZDR063, N-(2-((Dimethylamino)methyl)quinolin-8-yl)-4-methoxybenzenesulfonamide] | > 256 | 0.25 (≈ 0.673 µM) | > 256 | > 256 | > 256 | > 256
CN(C)Cc1ccc2cccc(NS(=O)(=O)CCC(F)(F)F)c2n1 [ZDR316, N-(2-((Dimethylamino)methyl)quinolin-8-yl)-3,3,3-trifluoropropane-1-sulfonamide] | > 256 | 0.125 (≈ 0.346 µM) | > 256 | > 256 | > 256 | > 256
O=S(=O)(Nc1cccc2ccc(CN(CCO)CCO)nc12)c1ccc(C(F)(F)F)cc1 [ZDR094, N-(2-((Bis(2-hydroxyethyl)amino)methyl)quinolin-8-yl)-4-(trifluoromethyl)benzenesulfonamide] | 32 (≈ 68.2 µM) | 4 (≈ 8.52 µM) | 62 (≈ 132 µM) | 32 (≈ 68.2 µM) | 256 (≈ 545 µM) | 256 (≈ 545 µM)
O=S(=O)(Nc1cccc2ccc(CN3CCCCC3)nc12)c1ccc(C(F)(F)F)cc1 [ZDR033, N-(2-((Piperidin-1-yl)methyl)quinolin-8-yl)-4-(trifluoromethyl)-benzenesulfonamide] | > 256 | 0.125 (≈ 0.278 µM) | > 256 | > 256 | > 256 | > 256
CC(=O)c1cccc(S(=O)(=O)Nc2cccc3ccc(CN(C)C)nc23)c1 [ZDR311, 3-Acetyl-N-(2-((dimethylamino)methyl)quinolin-8-yl)benzenesulfonamide] | 256 (≈ 668 µM) | 0.0625 (≈ 0.163 µM) | > 256 | 256 (≈ 668 µM) | > 256 | > 256
CN(C)Cc1ccc2cccc(NS(=O)(=O)c3ccccc3Br)c2n1 [ZDR202, 2-Bromo-N-(2-((dimethylamino)methyl)quinolin-8-yl)benzenesulfonamide] | 256 (≈ 609 µM) | 0.125 (≈ 0.297 µM) | 256 (≈ 609 µM) | > 256 | > 256 | > 256
